From patent US11766444B2, “Pharmaceutical composition for preventing or treating degenerative brain disorders including HDL-APOM-S1P as active ingredient” (Kyungpook National University Industry-Academic Cooperation …, priority 2017, dated 2023)
Values belong to the molecule of their own block, whether it stands above or below them.

Legend:
amyloid-β = assay: Amyloid-β deposition in brain tissue (cerebral cortex), thioflavin S staining and immunofluorescence; assay type: in vivo, mouse; conditions: APP/PS1 mice, vs 9-month-old untreated APP/PS1 mice
From the text: (§1) Transgenic mice overexpressing hAPP695swe (APPswe) and presenilin-1M146V (PS1) mutations were used as mouse models of the Alzheimer's disease. These are mouse lines produced by GlaxoSmithKline (Harlow, UK) with the standard technology for C57BL background (Charles River, UK), which double heterozygote mutant mice (APP/PS1 tg mice) were produced by backcrossing APPswe mice with pure C57BL/6 backgrounds and crossing PS1 mice
(§2) After collecting blood from mice, the obtained blood was separated into erythrocytes and plasma by centrifugation. The separated erythrocytes are reacted with 10 uM sphingosine at 37° C. for 1 hour, and then reacted for 1 hour at 37° C. after mixing again with the separated plasma. […]
(§3) After fixing the cerebral (especially cortex) and hippocampus of mice with 4% paraformaldehyde, the immobilized tissues were incubated with 0.5% thioflavin S (Sigma-Aldrich) or anti-20G10 against Aβ42 (mouse, 1:1000), anti-G30 against Aβ40 (rabbit, 1:1000), anti-lba-1 (rabbit, 1:500, Wako), and anti-GFAP (rabbit, 1:500, DAKO), respectively. […] The sites were analyzed using a laser scanning confocal microscope or Olympus BX51 microscope equipped with Fluoview SV1000 imaging software (Olympus FV1000, Japan). Metamorph software (Molecular Devices) was used to quantify the percentage of area of stained area to area of total tissue. […]

tau = assay: Tau deposition in brain tissue (AT8 immunofluorescence); assay type: in vivo, mouse; conditions: APP/PS1 mice, cerebral cortex, vs 9-month-old untreated APP/PS1 mice
From the text: as §1, §2, §3

[1] = S1P, ApoM, HDL-S1P and HDL-ApoM levels in plasma of APP/PS1 mice after HDL-ApoM-S1P loading; assay type: in vivo, mouse; conditions: i.v. 25 μl twice a week for 4 weeks (8 times), vs untreated APP/PS1 mice
From the text: as §1
(§4) After collecting blood from mice, the obtained blood was separated into erythrocytes and plasma by centrifugation. The separated erythrocytes are reacted with 10 uM sphingosine at 37° C. for 1 hour, and then reacted for 1 hour at 37° C. after mixing again with the separated plasma. After completion of the reaction, erythrocytes and plasma were separated by centrifugation, and only the plasma was collected again. The plasma thus obtained was loaded with S1P in HDL (HDL-ApoM-S1P loading), which was illustrated in FIG. 1.
The plasma solution thus obtained was intravenously injected 25 μl into mice twice a week for 4 weeks (total 8 times) according to the experimental outline shown in FIG. 2. As a control group, 3 μM S1P (Avanti) and […] ApoM (Mybiosource, SEQ ID NO: 1) were injected intravenously with 25 μl in mice twice a week for 4 weeks (eight times in total).
To collect blood from mouse models (APP/PS1 tg mice or APP/PS1/ApoM tg mice) and normal control mice (WT), the mice were anesthetized first, and 500 μl to 700 μl of blood were collected in heparin tubes (BD Falcon) by cardiac drawing. Each blood sample was then centrifuged at 1,200 rpm for 5 minutes to separate plasma from the supernatant. This plasma sample was stored at −80° C. before being used for analysis.
60 μl of plasma sample was placed in the ultrafast centrifuge tube, and then the same amount of PBS (Gibco) solution was added to form a layer on the plasma. A high speed centrifuge (HITACHI cp100wx Centrifuge P70AT rotor) was used to centrifuge at 70,000 rpm for 3 hours at 4° C. 60 μl of the lower layer of the sample separated into two layers was transferred into a new ultra-centrifuge tube. […]
Extraction and quantification of S1P was performed in the following manner. […] The dried lipid extract was resuspended in 25 μl of 0.2% Igepal CA-630 (Sigma-Aldrich), and the concentration level of each lipid was quantified by the UPLC system using the column ACQUITY BEH Shield RP18 1.7 μm 2.1×50 mm (186002853) and 0.1% of NH4OH.
Using a commercial ELISA kit (CUSABIO Human ApoM ELISA Kit and Mouse ApoM ELISA Kit), the amount of apolipoprotein M (ApoM) contained in the mouse plasma or HDL fractionated therefrom was quantified according to the manufacturer's protocol. […]

microglia = assay: Activity of microglia (Iba1 staining), neuroinflammatory response; assay type: in vivo, mouse; conditions: APP/PS1 mice, brain tissue, vs untreated APP/PS1 mice
From the text: as §1, §2, §3

astrocytes = assay: Activity of astrocytes (GFAP staining), neuroinflammatory response; assay type: in vivo, mouse; conditions: APP/PS1 mice, brain tissue, vs untreated APP/PS1 mice
From the text: as §1, §2, §3

APP/PS1 mice = assay: Morris water maze (MWM) test; assay type: in vivo, mouse; conditions: 10 days training, probe trial day 11
From the text: as §1, §4
The plasma solution thus obtained was intravenously injected 25 μl into mice twice a week for 4 weeks (total 8 times) according to the experimental outline shown in FIG. 2. […]
In order to identify potential effects on learning and memory, Morris water maze (MWM) and fear conditioning experiments were performed according to known methods. […] All experiments were recorded using a charge-coupled device (CCD) camera with video monitor and computer. […]

AD patients = conditions: cited from earlier work; for delaying cognitive decline compared to placebo: large-scale clinical trial, one year

- level of ApoM in plasma [1]: did not show a difference
- level of HDL-ApoM in the HDL fraction [1]: did not show a difference
- level of HDL-S1P in the HDL fraction [1]: did not show a difference
- level of S1P in plasma [1]: did not show a difference
Compound: CCCCCCCCCCCCC/C=C/[C@@H](O)[C@@H](N)COP(=O)(O)O [S1P, Sphingosine-1-Phosphate]
- Aβ40 deposition in brain tissue (amyloid-β): did not show a significant difference
- Aβ42 deposition in brain tissue (amyloid-β): did not show a significant difference
- tau deposition (AT8) in brain tissue (tau): did not show a significant difference
- inflammatory activity of microglia (microglia): no significant difference
- inflammatory activity of astrocytes (astrocytes): no significant difference
- learning and memory (spatial memory formation), MWM (APP/PS1 mice): severe impairment

Compound: O=C(O)Cc1ccccc1Nc1c(Cl)cccc1Cl [diclofenac]
- index of cognitive decline vs placebo (AD patients; mild to moderate AD patients, diclofenac in combination with misoprostol, after 25 weeks): no significant difference

Compound: CCN(CCO)CCCC(C)Nc1ccnc2cc(Cl)ccc12 (centres unmarked) [hydroxychloroquine]
- preventing memory degradation (AD patients; 18-month experiment): no protective effect

Compound: COc1ccc2cc([C@H](C)C(=O)O)ccc2c1 [naproxen]
- delaying cognitive decline compared to placebo (AD patients): not effective

Compound: CS(=O)(=O)Nc1ccc([N+](=O)[O-])cc1Oc1ccccc1 [nimesulide]
- rate of cognitive change (AD patients; AD patients, small 24-week studies): no significant difference

Compound: C[C@]12C=CC(=O)C=C1CC[C@@H]1[C@@H]2C(=O)C[C@@]2(C)[C@H]1CC[C@]2(O)C(=O)CO [prednisone]
- cognitive decline, treatment vs placebo groups (AD patients; low doses for one year): no difference

Compound: CS(=O)(=O)c1ccc(C2=C(c3ccccc3)C(=O)OC2)cc1 [rofecoxib]
- delaying cognitive decline compared to placebo (AD patients): not effective
- efficacy in mild to moderate AD patients (AD patients; trial for 1 year): ineffective
